Assay results reported in publication PMC11191600 (ACS chemical neuroscience, 2024).
Converted amounts (≈) assume the structure as drawn. Where two headings read alike, the source gives them in different places.

Columns and labels:
[1] = In vivo pharmacokinetics, intravenous cassette dosing in rats; parameters: species or system male Sprague-Dawley rats; conditions: rat; for AUC (area under the curve) / CLp (plasma clearance) / Vss (volume of distribution at steady-state) / t1/2 (terminal phase plasma half-life): intravenous 0.2 mg/kg, cassette; for in vivo clearance relative to hepatic blood flow (superhepatic clearance): intravenous dosing
[2] = Microsomal stability, human hepatic microsomes; format: in vitro ADME; conditions: predicted hepatic clearance
[3] = Microsomal stability, rat hepatic microsomes; format: in vitro ADME; conditions: predicted hepatic clearance
[4] = Plasma protein binding, equilibrium dialysis, human plasma; format: in vitro ADME
[5] = target: T1, human dopamine D4.4 receptor (Homo sapiens, UniProt P21917); test: Human dopamine D4.4 receptor radioligand binding assay (Eurofins); parameters: % Inhibition at D4.4: dose or concentration left out as unconfirmed; conditions: for % Inhibition at 10 μM D4.4: [3H]Spiperone binding; for inhibition at 10 µM: read-out: % Inhibition at 10 μM D4.4
T1 sequence (P21917 1-419): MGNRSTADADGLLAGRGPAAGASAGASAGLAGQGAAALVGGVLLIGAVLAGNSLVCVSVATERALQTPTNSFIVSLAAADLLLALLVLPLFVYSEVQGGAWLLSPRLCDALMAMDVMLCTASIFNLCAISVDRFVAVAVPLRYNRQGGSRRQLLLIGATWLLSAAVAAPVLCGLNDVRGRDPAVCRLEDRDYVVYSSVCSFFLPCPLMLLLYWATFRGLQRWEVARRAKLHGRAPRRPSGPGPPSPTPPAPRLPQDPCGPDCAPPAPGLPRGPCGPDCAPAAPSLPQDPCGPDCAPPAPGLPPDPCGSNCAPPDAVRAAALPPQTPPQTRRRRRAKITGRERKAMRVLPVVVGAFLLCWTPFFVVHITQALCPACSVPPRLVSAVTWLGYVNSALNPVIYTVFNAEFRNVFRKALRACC

[6] = target: human dopamine D2S receptor (Homo sapiens, UniProt P14416); test: Human dopamine D2S receptor radioligand binding assay (Eurofins); conditions: for % Inhibition at 10 μM D2S: [3H]Spiperone binding, Eurofins Discovery
human dopamine D2S receptor, sequence (P14416 1-414 isoform P14416-2): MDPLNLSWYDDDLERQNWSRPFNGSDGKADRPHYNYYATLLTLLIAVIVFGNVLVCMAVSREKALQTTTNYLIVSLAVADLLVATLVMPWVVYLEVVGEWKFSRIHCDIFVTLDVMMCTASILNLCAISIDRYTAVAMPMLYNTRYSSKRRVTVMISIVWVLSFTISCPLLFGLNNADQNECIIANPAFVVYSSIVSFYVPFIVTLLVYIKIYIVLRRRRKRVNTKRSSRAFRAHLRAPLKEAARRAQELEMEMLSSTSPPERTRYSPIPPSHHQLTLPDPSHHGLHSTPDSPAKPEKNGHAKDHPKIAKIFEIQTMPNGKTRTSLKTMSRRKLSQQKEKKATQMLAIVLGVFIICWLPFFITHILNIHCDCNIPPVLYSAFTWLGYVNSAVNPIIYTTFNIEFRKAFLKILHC

[7] = Kinetic solubility (shake flask, McIlvaine buffer); format: physicochemical; conditions: for Solubility pH = 2.2 / Solubility pH = 6.8: kinetic, 100 µM, 18 hours room temperature; for Solubility pH = 2.2: McIlvaine buffer pH 2.2; for Solubility pH = 6.8: McIlvaine buffer pH 6.8; for solubility at 18 h: McIlvaine buffer, kinetic from dmso stock
[8] = target: human dopamine D1 receptor (Homo sapiens, UniProt P21728); test: Human dopamine D1 receptor radioligand binding assay (Eurofins); conditions: for % Inhibition at 10 μM D1: [3H]SCH-23390 binding, Eurofins Discovery
human dopamine D1 receptor, sequence (P21728 whole entry): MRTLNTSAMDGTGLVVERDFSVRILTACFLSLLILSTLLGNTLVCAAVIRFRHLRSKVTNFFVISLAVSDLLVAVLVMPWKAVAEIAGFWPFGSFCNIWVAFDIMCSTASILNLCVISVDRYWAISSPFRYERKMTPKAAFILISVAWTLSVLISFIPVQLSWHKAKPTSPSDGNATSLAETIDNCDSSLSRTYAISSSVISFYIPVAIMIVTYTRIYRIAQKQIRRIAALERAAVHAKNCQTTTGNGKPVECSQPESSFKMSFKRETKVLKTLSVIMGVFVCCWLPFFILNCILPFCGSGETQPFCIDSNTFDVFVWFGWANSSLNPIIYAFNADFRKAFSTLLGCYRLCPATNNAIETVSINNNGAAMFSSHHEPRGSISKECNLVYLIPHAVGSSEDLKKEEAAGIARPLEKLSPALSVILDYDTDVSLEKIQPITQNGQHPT

[9] = target: human dopamine D3 receptor (Homo sapiens, UniProt P35462); test: Human dopamine D3 receptor radioligand binding assay (Eurofins); conditions: for % Inhibition at 10 μM D3: [3H]Spiperone binding, Eurofins Discovery
human dopamine D3 receptor, sequence (P35462 whole entry): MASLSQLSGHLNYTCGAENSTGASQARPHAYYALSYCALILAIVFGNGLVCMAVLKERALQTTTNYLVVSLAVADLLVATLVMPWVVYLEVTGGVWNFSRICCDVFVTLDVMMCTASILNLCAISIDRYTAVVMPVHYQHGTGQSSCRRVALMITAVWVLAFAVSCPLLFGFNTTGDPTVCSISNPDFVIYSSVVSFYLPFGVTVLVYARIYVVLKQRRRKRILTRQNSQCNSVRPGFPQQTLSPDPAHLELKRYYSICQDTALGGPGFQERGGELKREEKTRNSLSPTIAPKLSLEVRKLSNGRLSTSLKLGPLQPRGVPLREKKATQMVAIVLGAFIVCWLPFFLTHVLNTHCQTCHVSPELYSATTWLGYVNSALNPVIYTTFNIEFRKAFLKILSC

[10] = Plasma protein binding, equilibrium dialysis, rat plasma; format: in vitro ADME
[11] = target: Human recombinant dopamine D2L receptor (Homo sapiens, UniProt P14416); test: Human dopamine D2L receptor radioligand binding assay (Eurofins); conditions: for % Inhibition at 10 μM D2L: [3H]Spiperone binding, Eurofins Discovery
Human recombinant dopamine D2L receptor, sequence (P14416 whole entry): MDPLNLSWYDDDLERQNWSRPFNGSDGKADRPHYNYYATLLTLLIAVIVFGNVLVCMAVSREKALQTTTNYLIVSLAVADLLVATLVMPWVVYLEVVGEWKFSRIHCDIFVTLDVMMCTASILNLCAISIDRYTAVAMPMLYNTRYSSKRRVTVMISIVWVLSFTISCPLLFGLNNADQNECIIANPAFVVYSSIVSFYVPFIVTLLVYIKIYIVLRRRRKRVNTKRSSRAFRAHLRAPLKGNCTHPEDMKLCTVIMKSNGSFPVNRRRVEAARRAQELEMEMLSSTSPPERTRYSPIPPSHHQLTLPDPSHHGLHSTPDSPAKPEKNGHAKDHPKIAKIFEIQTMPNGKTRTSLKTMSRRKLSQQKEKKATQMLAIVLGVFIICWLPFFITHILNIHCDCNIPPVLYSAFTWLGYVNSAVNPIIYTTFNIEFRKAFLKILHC

[12] = Metabolite profiling in rat hepatocytes; format: in vitro ADME; conditions: 4 h
[13] = Metabolite profiling in human hepatocytes; format: in vitro ADME; conditions: 4 h
[14] = read-out: D4.4 IC50, Eurofins Discovery
[15] = read-out: D4.4 Ki, Eurofins Discovery

| CLH human (hepatic clearance) [2] [L/h/kg] | CLH rat (hepatic clearance) [3] [L/h/kg] | fu,plasma human (fraction unbound) [4] | % Inhibition at 10 μM D4.4 ([5]; Eurofins Discovery) [%] | IC50 [5, 14] [µM] | Ki [5, 15] [µM] | % Inhibition at 10 μM D2S [6] [%] | Solubility pH = 2.2 [7] [µM] | Solubility pH = 6.8 [7] [µM] | % Inhibition at 10 μM D1 [8] [%] | % Inhibition at 10 μM D3 [9] [%] | fu,plasma rat (fraction unbound) [10] | % Inhibition at 10 μM D2L [11] [%] | SMILES | further results |
| --- | --- | --- | --- | --- | --- | --- | --- | --- | --- | --- | --- | --- | --- | --- |
| 1.01 | 3.55 | 0.01 | 88 | 2.79 | 0.25 | 8 | 95.3 | 88.9 | 21 | 9 | 0.03 | 9 | Cc1ccc(C(=O)N2CC3(CCN(Cc4ccc(F)c(F)c4)CC3)C2)cc1C [Compound 4] | AUC (area under the curve) [1]: 0.0287 µg·h/mL; CLp (plasma clearance) [1]: 6.96 L/h/kg; Vss (volume of distribution at steady-state) [1]: 5.52 L/kg; t1/2 (terminal phase plasma half-life) [1]: 1.05 h; in vivo clearance relative to hepatic blood flow (superhepatic clearance) [1]: > 100 % Qh |
| – | – | – | 94 | 0.2 | 0.056 | 25 | 83.4 | 87.0 | 35 | 27 | – | 24 | Cc1ccc(C(=O)N2CC3(CCN(Cc4c[nH]c5cc(F)ccc45)CC3)C2)cc1C [Compound 5] | – |
| – | – | – | 90 | 0.15 | 0.043 | 15 | 89.4 | 83.1 | −4 | 25 | – | 3 | Cc1ccc(C(=O)N2CC3(CCN(Cc4n[nH]c5cc(F)ccc45)CC3)C2)cc1C [Compound 6] | – |
| – | – | – | 91 | 0.081 | 0.022 | 25 | 84.2 | 31.6 | 24 | 62 | – | 24 | Cc1ccc(C(=O)N2CC3(CCN(Cc4ccc(Cl)c(Cl)c4)CC3)C2)cc1C [Compound 9] | – |
| – | – | – | – | – | – | – | – | – | – | – | – | – | COc1ncc(CN2CCC3(CC2)CN(C(=O)c2ccc(C)c(C)c2)C3)cc1F [Compound 10] | inhibition at 10 µM [5]: 66% |
| – | – | – | – | – | – | – | – | – | – | – | – | – | Cc1ccc(C(=O)N2CC3(CCN(Cc4cn(C)c5ccccc45)CC3)C2)cc1C [Compound 12] | IC50 [5]: 0.28 µM; Ki [5]: 0.076 µM; inhibition at 10 µM [5]: 92%; inhibition at 10 µM ([6]; read-out: % Inhibition at 10 μM D2S): 24%; solubility at 18 h ([7]; pH 2.2, aqueous buffer): 88.3 µM (≈ 35.5 µg/mL); solubility at 18 h ([7]; pH 6.8, aqueous buffer): 87.4 µM (≈ 35.1 µg/mL); inhibition at 10 µM ([8]; read-out: % Inhibition at 10 μM D1): 27%; inhibition at 10 µM ([9]; read-out: % Inhibition at 10 μM D3): 19%; inhibition at 10 µM ([11]; read-out: % Inhibition at 10 μM D2L): 16% |
| – | – | – | 85 | 0.99 | 0.27 | – | 90.5 | 88.2 | – | – | – | – | Cc1ccc(C(=O)N2CC3(CCN(Cc4c[nH]c5cc(F)ccc45)CC3C)C2)cc1C (stereo not drawn) [Compound 13] | – |
| – | – | – | 89 | 1.92 | 0.53 | – | – | – | – | – | – | – | Cc1ccc(C(=O)N2CC3(CCN(Cc4c[nH]c5cc(F)ccc45)C(C)C3)C2)cc1C (stereo not drawn) [Compound 14] | – |
| – | – | – | 92 | 0.082 | 0.023 | 14 | – | – | 21 | 30 | – | 23 | O=C(c1ccc(Cl)cc1Cl)N1CC2(CCN(Cc3c[nH]c4cc(F)ccc34)CC2)C1 [Compound 19] | – |
| 0.822 | 2.17 | 0.10 | 95 | 0.084 | 0.023 | 12 | 86.4 | 82.7 | 16 | 14 | 0.23 | 18 | O=C(c1ccc2c(c1)OCO2)N1CC2(CCN(Cc3c[nH]c4cc(F)ccc34)CC2)C1 [Compound 20] | AUC (area under the curve) [1]: 0.0264 µg·h/mL; CLp (plasma clearance) [1]: 7.56 L/h/kg; Vss (volume of distribution at steady-state) [1]: 44.4 L/kg; t1/2 (terminal phase plasma half-life) [1]: 4.55 h; in vivo clearance relative to hepatic blood flow (superhepatic clearance) [1]: > 100 % Qh |
| – | – | – | 49 | – | – | – | – | – | – | – | – | – | O=C(c1cc(Cl)cc(Cl)c1)N1CC2(CCN(Cc3c[nH]c4cc(F)ccc34)CC2)C1 [Compound 28] | – |
| 1.04 | 2.95 | 0.05 | 99 | 0.062 | 0.017 | 5 | 91.9 | 85.3 | 27 | 13 | 0.15 | 20 | Cc1ccc(C(=O)N2CC3(CCN(Cc4c[nH]c5cc(F)ccc45)CC3)C2)cc1 [Compound 29] | – |
| 0.882 | 2.77 | 0.06 | 92 | 0.49 | 0.14 | 18 | 91.2 | 87.0 | 10 | 12 | 0.14 | 18 | Cc1cccc(C(=O)N2CC3(CCN(Cc4c[nH]c5cc(F)ccc45)CC3)C2)c1 [Compound 32] | – |
| 0.96 | 2.34 | 0.19 | 93 | 0.21 | 0.059 | 0 | 92.9 | 87.7 | 9 | 11 | 0.26 | −7 | Cc1ccccc1C(=O)N1CC2(CCN(Cc3c[nH]c4cc(F)ccc34)CC2)C1 [Compound 33] | piperidine N-dealkylation metabolite, relative percentage [12]: 32.4%; turnover in hepatocytes [12]: moderate turnover; parent compound remaining postincubation ([12]; LC/MS relative percentage): 65.8%; AUC (area under the curve) [1]: 0.027 µg·h/mL; CLp (plasma clearance) [1]: 7.38 L/h/kg; Vss (volume of distribution at steady-state) [1]: 36.9 L/kg; t1/2 (terminal phase plasma half-life) [1]: 4.02 h; in vivo clearance relative to hepatic blood flow (superhepatic clearance) [1]: > 100 % Qh; piperidine N-dealkylation metabolite, relative percentage [13]: 6.3%; turnover in hepatocytes [13]: low turnover; parent compound remaining postincubation ([13]; LC/MS relative percentage): 87.9% |
| – | – | – | – | – | – | – | – | – | – | – | – | – | Cc1ccc(C(=O)N2CCC3(CCN(Cc4c[nH]c5cc(F)ccc45)CC3)C2)cc1C [Compound 42, (3,4-dimethylphenyl)(8-[(6-fluoro-1H-indol-3-yl)methyl)-2,8-diazaspiro[4.5]decan-2-yl)methanone] | % Inhibition at D4.4 ([5]; screened at Eurofins): 44% |

| SMILES | CLH human (hepatic clearance) [2] [L/h/kg] | CLH rat (hepatic clearance) [3] [L/h/kg] | fu,plasma human (fraction unbound) [4] | % Inhibition at 10 μM D4.4 ([5]; Eurofins Discovery) [%] | IC50 [5, 14] [µM] | Ki [5, 15] [µM] | % Inhibition at 10 μM D2S [6] [%] | Solubility pH = 2.2 [7] [µM] | Solubility pH = 6.8 [7] [µM] | % Inhibition at 10 μM D1 [8] [%] | % Inhibition at 10 μM D3 [9] [%] | fu,plasma rat (fraction unbound) [10] | % Inhibition at 10 μM D2L [11] [%] | further results |
| --- | --- | --- | --- | --- | --- | --- | --- | --- | --- | --- | --- | --- | --- | --- |
| Cc1ccc(S(=O)(=O)N2CC3(CCN(Cc4c[nH]c5cc(F)ccc45)CC3)C2)cc1 [Compound 34] | – | – | – | 94 | 0.12 | 0.033 | 17 | – | – | 47 | 49 | – | 50 | – |
